Drawing on patent US20160296499A1, “Spiroindoline Antiparasitic Derivatives” (ZOETIS SERVICES LLC, priority 2013, published 2016), this text covers minimal effective concentration and Ki for 19 compounds.

Like-named read-outs stand apart in the source and are kept apart here. A value given as a limit tells only on which side of the number the result lay.

One experiment relates to Haemonchus contortus L3. Kind of experiment: Haemonchus contortus, Larvae Stage 3 (HcL3) In Vitro Assay. The conditions noted are these: Haemonchus contortus.
In experiment [1] the test system is Dirofilaria immitis microfilariae. The experiment in a line: Dirofilaria immitis, Microfilariae (DiMF) In Vitro Assay. The conditions noted are these: Dirofilaria immitis.
For experiment [2], the target named is T1, bovine vesicular acetylcholine transporter (VAChT) (Bos taurus, UniProt E1BK36).
T1 sequence (E1BK36 1-524): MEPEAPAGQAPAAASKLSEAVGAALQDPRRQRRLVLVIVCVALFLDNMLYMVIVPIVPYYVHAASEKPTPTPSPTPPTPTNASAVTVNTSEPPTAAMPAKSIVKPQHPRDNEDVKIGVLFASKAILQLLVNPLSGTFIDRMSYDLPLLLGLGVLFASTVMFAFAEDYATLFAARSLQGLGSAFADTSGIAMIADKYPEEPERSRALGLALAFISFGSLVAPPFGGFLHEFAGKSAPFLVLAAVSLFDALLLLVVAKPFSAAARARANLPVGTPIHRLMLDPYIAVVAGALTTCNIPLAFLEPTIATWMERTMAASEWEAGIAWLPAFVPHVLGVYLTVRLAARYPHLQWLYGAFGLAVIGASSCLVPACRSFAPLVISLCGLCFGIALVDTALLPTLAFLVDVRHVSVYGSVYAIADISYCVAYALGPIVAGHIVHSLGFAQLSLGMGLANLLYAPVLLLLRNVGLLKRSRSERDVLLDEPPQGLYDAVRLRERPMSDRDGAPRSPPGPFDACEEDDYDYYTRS
The experiment in a line: Radioligand Binding Assay. The following applies: Bovine binding Ki, CHO-K1 membranes with recombinant bovine VAChT, [3H]Compound X6 0.3 nM.

Where [3] appears, read: 96 h, read-out: HcL3 MEC, Minimal Effective Concentration whereby worm motility is inhibited by approximately 70%, 37° C., tested 0.001-100 μM.
Where [4] appears, read: 72 h, read-out: Di MF, MEC, decrease in microfilariae motility by visual assessment, curve starting at 100 μM.
The mark [5] stands for this setting: 96 hours, 37° C., read-out: HcL3 MEC.

On to `O=C(NCc1ccnc(F)c1)N1CC2(CCN(C/C=C/c3ccc(F)cc3)CC2)c2ccc(OC(F)(F)F)cc21` [Example 100, (E)-1′-(3-(4-fluorophenyl)allyl)-N-((2-fluoropyridin-4-yl)methyl)-6-(trifluoromethoxy)spiro[indoline-3,4′-piperidine]-1-carboxamide], for which the minimal effective concentration in the experiment on Haemonchus contortus L3 (setting [3]) is 3.3 µM; in experiment [1] (setting [4]) it was 10 µM. Besides, the Ki in experiment [2] is 121 nM.
For `O=C(NCc1ccnc(F)c1)N1CC2(CCN(C/C=C/c3ccc(Cl)cc3)CC2)c2c1ccc(Cl)c2Cl` [Example 62, (E)-4,5-dichloro-1′-(3-(4-chlorophenyl)allyl)-N-((2-fluoropyridin-4-yl)methyl)spiro[indoline-3,4′-piperidine]-1-carboxamide] the same measures were 3.3 µM, 10 µM and 329 nM.
On the same counts, the results for `Cn1cc(CNC(=O)N2CC3(CCN(C/C=C/c4ccc(Cl)c(Cl)c4)CC3)c3c2ccc2scnc32)cn1` [Example 26, (E)-1-(3-(3,4-dichlorophenyl)allyl)-N-((1-methyl-1H-pyrazol-4-yl)methyl)spiro[piperidine-4,8′-thiazolo[4,5-e]indole]-6′(7′H)-carboxamide] are 10 µM, 10 µM and 27.8 nM.
For `CS(=O)(=O)c1ccc2c(c1)C1(CCN(C/C=C/c3ccc(Cl)cc3)CC1)CN2C(=O)NCc1ccnc(Cl)c1` [Example 79, (E)-1′-(3-(4-chlorophenyl)allyl)-N-((2-chloropyridin-4-yl)methyl)-5-(methylsulfonyl)spiro[indoline-3,4′-piperidine]-1-carboxamide] the same measures were 100 µM, 10 µM and 11300 nM.
Regarding `O=C(NCc1ccnc(Cl)c1)N1CC2(CCN(C/C=C/c3ccc(Cl)cc3)CC2)c2c1cccc2C(F)(F)F` [Example 149, (E)-1′-(3-(4-chlorophenyl)allyl)-N-((2-chloropyridin-4-yl)methyl)-4-(trifluoromethyl)spiro[indoline-3,4′-piperidine]-1-carboxamide], the figures for the minimal effective concentration (in the experiment on Haemonchus contortus L3 (setting [3]); in experiment [1] (setting [4])) were 5.1 µM and 8.1 µM, respectively. Moreover, the Ki in experiment [2] was determined as 396 nM.
For `O=C(NCc1ccnc(Cl)c1)N1CC2(CCN(Cc3ccc4cc(F)ccc4c3)CC2)c2cc(Cl)ccc21` [Example 139, 5-chloro-N-((2-chloropyridin-4-yl)methyl)-1′-((6-fluoronaphthalen-2-yl)methyl)spiro[indoline-3,4′-piperidine]-1-carboxamide] the same measures were 3.3 µM, 33 µM and 20.1 nM.
Turning to `O=C(NCc1ccnc(Cl)c1)N1CC2(CCN(C/C=C/c3ccc(Cl)cc3)CC2)c2c1ccc(OC(F)(F)F)c2Cl` [Example 159, (E)-4-chloro-1′-(3-(4-chlorophenyl)allyl)-N-((2-chloropyridin-4-yl)methyl)-5-(trifluoromethoxy)spiro[indoline-3,4′-piperidine]-1-carboxamide], the minimal effective concentration with Haemonchus contortus L3 (setting [5]) is 10 µM; in experiment [1] (72 hours, read-out: Di MF) it was 24 µM. In addition, the Ki in experiment [2] is 565 nM.
With `N#Cc1cc2c(cn1)N(C(=O)NCc1ccnc(Cl)c1)CC21CCN(C/C=C/c2ccc(Cl)c(Cl)c2)CC1` [Example 66, (E)-N-((2-chloropyridin-4-yl)methyl)-5′-cyano-1-(3-(3,4-dichlorophenyl)allyl)spiro[piperidine-4,3′-pyrrolo[2,3-c]pyridine]-1′(2′H)-carboxamide], the minimal effective concentration was determined as 1.8 µM with Haemonchus contortus L3 (setting [3]) and 10 µM in experiment [1] (setting [4]). In addition, the Ki in experiment [2] stood at 24.1 nM.
On the same counts, the results for `N#Cc1ccc(/C=C/CN2CCC3(CC2)CN(C(=O)NCc2ccnc(Cl)c2)c2cccc(C(F)(F)F)c23)cc1` [Example 99, (E)-N-((2-chloropyridin-4-yl)methyl)-1′-(3-(4-cyanophenyl)allyl)-4-(trifluoromethyl)spiro[indoline-3,4′-piperidine]-1-carboxamide] are 10 µM, 5.7 µM and 306 nM.
For `COc1nccc2c1C1(CCN(C/C=C/c3ccc(Cl)c(Cl)c3)CC1)CN2C(=O)NCc1ccnc(Cl)c1` [Example 68, (E)-N-((2-chloropyridin-4-yl)methyl)-1-(3-(3,4-dichlorophenyl)allyl)-4′-methoxyspiro[piperidine-4,3′-pyrrolo[3,2-c]pyridine]-1′(2′H)-carboxamide] the same measures were 33 µM, 1.3 µM and 815 nM.
On the same counts, the results for `O=C(NCc1ccnc(Cl)c1)N1CC2(CCN(C/C=C/c3ccc(Cl)c(Cl)c3)CC2)c2c1ccc(F)c2Cl` [Example 146, (E)-4-chloro-N-((2-chloropyridin-4-yl)methyl)-1′-(3-(3,4-dichlorophenyl)allyl)-5-fluorospiro[indoline-3,4′-piperidine]-1-carboxamide] are 3.3 µM, 5.7 µM and 21.7 nM.
Consider `N#Cc1cncc(-c2ccc3c(c2)C2(CCN(C/C=C/c4ccc(Cl)cc4)CC2)CN3C(=O)NCc2ccnc(F)c2)c1` [Example 115, 1′-[(E)-3-(4-chlorophenyl)allyl]-5-(5-cyano-3-pyridyl)-N-[(2-fluoro-4-pyridyl)methyl]spiro[indoline-3,4′-piperidine]-1-carboxamide], for which the minimal effective concentration in the experiment with Haemonchus contortus L3 (setting [3]) came out at 100 µM; in experiment [1] (setting [4]) it was 7.6 µM. The Ki in experiment [2] worked out at 3930 nM.
For `CS(=O)(=O)c1ccc2c(c1)N(C(=O)NCc1ccnc(Cl)c1)CC21CCN(C/C=C/c2ccc(Cl)cc2)CC1` [Example 162, (E)-1′-(3-(4-chlorophenyl)allyl)-N-((2-chloropyridin-4-yl)methyl)-6-(methylsulfonyl)spiro[indoline-3,4′-piperidine]-1-carboxamide] the same measures were 10 µM, 10 µM and 23.4 nM.
For `O=C(NCc1ccnnc1)N1CC2(CCN(C/C=C/c3ccc(Cl)c(Cl)c3)CC2)c2c1ccc1scnc21` [Example 37, (E)-1-(3-(3,4-dichlorophenyl)allyl)-N-(pyridazin-4-ylmethyl)spiro[piperidine-4,8′-thiazolo[4,5-e]indole]-6′(7′H)-carboxamide] the same measures were 100 µM, 6.9 µM and 1210 nM.
In the case of `Cn1ncc2c3c(ccc21)N(C(=O)NCc1ccnc(Cl)c1)CC31CCN(C/C=C/c2ccc(Cl)cc2)CC1` [Example 51, (E)-1-(3-(4-chlorophenyl)allyl)-N-((2-chloropyridin-4-yl)methyl)-3′-methyl-3′H-spiro[piperidine-4,8′-pyrrolo[3,2-e]indazole]-6′(7′H)-carboxamide], the minimal effective concentration in the experiment on Haemonchus contortus L3 (setting [5]) was over 100 µM; in experiment [1] (72 hours, read-out: Di MF), 33.3 µM. Further, the Ki in experiment [2] came out at 518 nM.
As to `Cc1noc(C)c1-c1ccc2c(c1)C1(CCN(C/C=C/c3ccc(Cl)cc3)CC1)CN2C(=O)NCc1ccnc(Cl)c1` [Example 187, (E)-1′-(3-(4-chlorophenyl)allyl)-N-((2-chloropyridin-4-yl)methyl)-5-(3,5-dimethylisoxazol-4-yl)spiro[indoline-3,4′-piperidine]-1-carboxamide], the minimal effective concentration worked out at 100 µM in the experiment with Haemonchus contortus L3 (setting [5]) and 3.3 µM in experiment [1] (72 hours, read-out: Di MF). Also, the Ki in experiment [2] worked out at 2470 nM.
For `COc1ccc(/C=C/CN2CCC3(CC2)CN(C(=O)NCc2ccnc(Cl)c2)c2ccc4sc(C)nc4c23)cc1` [Example 46, (E)-N-((2-chloropyridin-4-yl)methyl)-1-(3-(4-methoxyphenyl)allyl)-2′-methylspiro[piperidine-4,8′-thiazolo[4,5-e]indole]-6′(7′H)-carboxamide], the minimal effective concentration is over 100 µM in the experiment on Haemonchus contortus L3 (setting [3]) and 10 µM in experiment [1] (setting [4]). Further, the Ki in experiment [2] came out at 883 nM.
As to `O=C(NCc1ccnc(Cl)c1)N1CC2(CCN(C/C=C/c3ccc(C(F)(F)F)cc3)CC2)c2cc(Cl)c(F)cc21` [Example 128, (E)-5-chloro-N-((2-chloropyridin-4-yl)methyl)-6-fluoro-1′-(3-(4-(trifluoromethyl)phenyl)allyl)spiro[indoline-3,4′-piperidine]-1-carboxamide], the minimal effective concentration came out at 1 µM in the experiment with Haemonchus contortus L3 (setting [3]) and 3.3 µM in experiment [1] (setting [4]). Moreover, the Ki in experiment [2] turned out to be 44 nM.
For `O=C(NCc1ccnc(Cl)c1)N1CC2(CCN(C/C=C/c3ccc(C(F)(F)F)cc3)CC2)c2c1ccc(F)c2Cl` [Example 164, (E)-4-chloro-N-((2-chloropyridin-4-yl)methyl)-5-fluoro-1′-(3-(4-(trifluoromethyl)phenyl)allyl)spiro[indoline-3,4′-piperidine]-1-carboxamide] the same measures were 12.4 µM, 5.3 µM and 311 nM.
